Source: ChEMBL document CHEMBL4823254, “Tetrahydroquinoline-Capped Histone Deacetylase 6 Inhibitor SW-101 Ameliorates Pathological Phenotypes in a Charcot-Marie-Tooth Type 2A Mouse Model” (J Med Chem, 2021)
Activity calls are given as the source filed them. The rule behind the calls is not given here.

Legend:
Mus musculus [1] = assay: Neuroprotective activity in hMFN2-induced CMT2A transgenic mouse model assessed as increase in paw withdrawal latency at 20 mg/kg, ip qd by von Frey test; assay type: functional, organism-based
[2] = Tmax in C57BL/6J mouse brain at 15 mg/kg, ip; assay type: ADME, organism-based
[3] = target: T1, Protein deacetylase HDAC6 (Mus musculus) (UniProt Q9Z2V5); assay: In vivo inhibition of HDAC6 in hMFN2-induced CMT2A transgenic mouse model assessed as increase in acetylated tubulin in distal sciatic nerve tissue at 20 mg/kg, ip qd administered for 22 weeks by Western blot analysis; assay type: functional, organism-based
T1 sequence (whole entry): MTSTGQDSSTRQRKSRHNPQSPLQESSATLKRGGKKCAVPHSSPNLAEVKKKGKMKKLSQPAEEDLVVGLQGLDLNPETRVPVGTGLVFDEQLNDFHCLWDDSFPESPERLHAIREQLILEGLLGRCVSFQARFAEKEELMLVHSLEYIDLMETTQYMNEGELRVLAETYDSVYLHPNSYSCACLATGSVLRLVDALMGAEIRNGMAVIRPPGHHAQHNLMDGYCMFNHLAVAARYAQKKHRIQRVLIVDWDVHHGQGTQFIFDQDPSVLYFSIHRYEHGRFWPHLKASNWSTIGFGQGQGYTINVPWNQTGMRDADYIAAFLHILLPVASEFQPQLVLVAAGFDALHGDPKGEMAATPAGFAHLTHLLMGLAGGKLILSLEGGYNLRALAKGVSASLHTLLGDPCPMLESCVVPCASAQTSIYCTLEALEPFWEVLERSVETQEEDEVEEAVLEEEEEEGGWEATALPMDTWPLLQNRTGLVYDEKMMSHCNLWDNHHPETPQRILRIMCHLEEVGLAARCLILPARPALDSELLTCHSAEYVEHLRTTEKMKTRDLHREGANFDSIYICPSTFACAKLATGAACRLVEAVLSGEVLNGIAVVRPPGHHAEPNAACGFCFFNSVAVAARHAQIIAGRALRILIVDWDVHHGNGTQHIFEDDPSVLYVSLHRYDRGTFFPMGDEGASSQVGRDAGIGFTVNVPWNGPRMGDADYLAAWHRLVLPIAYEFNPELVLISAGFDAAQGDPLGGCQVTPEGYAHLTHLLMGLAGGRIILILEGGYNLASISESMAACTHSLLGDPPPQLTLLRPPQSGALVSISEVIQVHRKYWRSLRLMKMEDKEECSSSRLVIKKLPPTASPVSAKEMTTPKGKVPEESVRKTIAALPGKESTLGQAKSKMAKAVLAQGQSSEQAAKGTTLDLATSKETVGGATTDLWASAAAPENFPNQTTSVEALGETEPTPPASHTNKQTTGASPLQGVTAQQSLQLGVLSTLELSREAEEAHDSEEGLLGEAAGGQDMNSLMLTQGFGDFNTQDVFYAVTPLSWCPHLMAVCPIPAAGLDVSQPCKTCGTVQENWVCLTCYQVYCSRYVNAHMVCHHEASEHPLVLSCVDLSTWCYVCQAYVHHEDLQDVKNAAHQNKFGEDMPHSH

[4] = Unbound AUC (0 to infinity) in C57BL/6J mouse plasma at 15 mg/kg, ip; assay type: ADME, organism-based; conditions: in vivo
[5] = target: T2, Protein deacetylase HDAC6 (Homo sapiens, UniProt Q9UBN7)
T2 sequence (Q9UBN7 whole entry): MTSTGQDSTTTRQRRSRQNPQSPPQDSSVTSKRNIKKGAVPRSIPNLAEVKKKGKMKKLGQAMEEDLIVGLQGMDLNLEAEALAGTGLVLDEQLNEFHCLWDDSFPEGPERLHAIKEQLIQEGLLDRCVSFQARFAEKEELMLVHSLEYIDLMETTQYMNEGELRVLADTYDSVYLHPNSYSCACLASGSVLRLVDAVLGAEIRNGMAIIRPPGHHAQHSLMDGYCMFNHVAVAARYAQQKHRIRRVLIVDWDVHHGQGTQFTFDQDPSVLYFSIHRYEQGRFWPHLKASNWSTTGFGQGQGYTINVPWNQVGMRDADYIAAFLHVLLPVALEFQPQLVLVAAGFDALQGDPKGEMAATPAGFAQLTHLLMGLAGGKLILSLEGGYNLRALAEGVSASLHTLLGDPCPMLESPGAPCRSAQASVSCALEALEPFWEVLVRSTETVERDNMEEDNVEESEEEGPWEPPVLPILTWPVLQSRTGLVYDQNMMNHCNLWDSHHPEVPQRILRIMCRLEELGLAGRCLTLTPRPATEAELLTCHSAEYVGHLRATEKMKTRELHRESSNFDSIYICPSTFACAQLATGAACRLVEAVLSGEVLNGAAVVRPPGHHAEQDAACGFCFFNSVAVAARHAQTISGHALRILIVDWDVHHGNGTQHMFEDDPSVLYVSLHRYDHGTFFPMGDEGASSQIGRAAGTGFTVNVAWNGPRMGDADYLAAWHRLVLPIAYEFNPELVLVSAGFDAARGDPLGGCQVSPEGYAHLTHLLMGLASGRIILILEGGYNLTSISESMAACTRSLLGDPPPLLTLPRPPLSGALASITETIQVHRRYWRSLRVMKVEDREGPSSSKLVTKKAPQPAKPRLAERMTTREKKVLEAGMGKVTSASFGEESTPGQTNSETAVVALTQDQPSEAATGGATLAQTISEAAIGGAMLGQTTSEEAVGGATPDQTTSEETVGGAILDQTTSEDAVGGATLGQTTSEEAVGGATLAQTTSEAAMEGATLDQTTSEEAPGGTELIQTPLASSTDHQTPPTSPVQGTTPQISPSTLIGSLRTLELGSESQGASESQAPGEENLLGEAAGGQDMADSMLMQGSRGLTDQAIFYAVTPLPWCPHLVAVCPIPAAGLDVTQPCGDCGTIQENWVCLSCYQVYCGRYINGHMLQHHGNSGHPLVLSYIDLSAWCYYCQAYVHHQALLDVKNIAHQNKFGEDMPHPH
Description: Inhibition of recombinant human HDAC6 using Ac-GAK(Ac)-AMC as substrate preincubated for 10 mins followed by substrate addition and measured after 30 mins by fluorescence-based assay

[6] = Half life in C57BL/6J mouse plasma at 15 mg/kg, ip; assay type: ADME, organism-based
[7] = Genotoxicity in Salmonella typhimurium TA1535 at 5 to 100 uM in presence of liver S9 fraction by Ames test; assay type: toxicity; conditions: salmonella enterica subsp. enterica serovar typhimurium, s9, 100 µM; dose 5-100 µM
[8] = target: T1, Protein deacetylase HDAC6 (Mus musculus); assay: In vivo inhibition of HDAC6 in wild type mouse assessed as increase in alpha-tubulin acetylation in sciatic nerve tissue at 10 to 20 mg/kg, ip measured after 24 hrs by immunoblot analysis; assay type: functional, organism-based; conditions: dose 10-20 mg/kg
[9] = target: T2, Protein deacetylase HDAC6; remark: listed apart in the source
Description: Inhibition of Nanoluc-fused HDAC6 CD2 (unknown origin) expressed in HEK293 cells incubated for 2 hrs by NANOBRET assay

Mus musculus [10] = assay: Neuroprotective activity in hMFN2-induced CMT2A transgenic mouse model assessed as increase in motor performance at 20 mg/kg, ip qd administered for 26 weeks when treated prior with compound dissolved in PBS/PEG400/Tween80/EtOH (50/35/10/5) wt% as vehicle by rotarod test; assay type: functional, organism-based

SMILES: NC(=O)c1ccc2c(c1)CCCN2Cc1ccc(C(=O)NO)cc1
- Activity (Mus musculus [1]): Active
- Tmax [2]: 15 min
- inhibition [3]: Active
- fAUC [4]: 421 ng·h/mL
- IC50 [5]: 0.7 nM
- half-life [6]: 26.4 min
- Activity [7]: Non-Toxic
- inhibition [8]: Active
- IC50 [9]: 1370 nM
- Activity (Mus musculus [10]): Active
